Experiments:
[1] = target: soluble human BACE-1 catalytic domain (Homo sapiens (Human), UniProt P56817); test: BACE-1 Ki Assay (BACE-1 HTRF FRET Assay); assay type: biochemical; conditions: Assay 1; Ki calculated from IC50 by Cheng-Prusoff
How it was run: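 Recombinant human BACE-1 catalytic domain (3 nM in 10 μl) preincubated with inhibitor 30 min at 30° C, pH 5.0 acetate buffer with 7.5% DMSO, then 200 nM final QSY7-APPswe-Eu substrate for 1.5 h; 620 nm time-resolved fluorescence read. IC50 from nonlinear regression converted to Ki by Cheng-Prusoff using Km 8 μM.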

CSF Aβ40 = test: Aβ Reduction In Vivo (rat CSF Aβ40); conditions: male CD IGS rats, 10 mg/kg oral gavage, CSF at 3 hours, change vs vehicle
Experimental: Assay 5: Aβ Reduction In Vivo
The in vivo efficacy and/or potency of BACE inhibitors (test compounds) can be evaluated using a variety of animal models, including mouse, rat, dog, and monkey, and these animals can be wild type, transgenic, or gene knockout animals.
Generally, animals are administered (by oral gavage, intravenous injection, or by other suitable route) a test compound in doses ranging from, for example, 0.1 mg/kg (mg of compound per kg of animal body weight) to 100 mg/kg formulated in vehicles, such as cyclodextrin, phosphate buffer, hydroxypropyl methylcellulose or other suitable vehicles. One to twenty-four hours following the administration of compound, animals are sacrificed, and tissues (for example, brain, cerebrospinal fluid (CSF), and/or plasma) are collected for analysis of Aβ levels and/or test compound concentrations (Dovey et al., 2001, Journal of Neurochemistry, 76, 173-181). Tissue samples are processed appropriately and then analyzed for the presence of Aβ by specific sandwich ELISA assays based on electrochemiluminescence (ECL) technology.
For example, in the following assay for which data are reported below, male CD IGS rats (body weight approximately 120 g, Charles River Laboratories, Kingston, N.Y.) were used to assess lowering of CSF levels of Aβ1-40 (Aβ40) in the presence of compounds of the invention. At time 0, animals were administered by oral gavage a test compound at a dose of 10 mg/kg in 20% hydroxypropyl-β-cyclodextrin (dosing volume 5 mL/kg). A separate group of animals received 20% hydroxypropyl-β-cyclodextrin alone to serve as the vehicle control group. Three hours after administration, the rats were euthanized with excess CO2. Immediately following euthanasia, CSF was collected from the cisterna magna and quickly frozen on dry ice. Samples were stored at −80° C. until quantification of Aβ40 levels.
The measurement of endogenous rat Aβ40 in CSF relied on the 585 antibody (Ab585, BioSource, NONO585), which specifically recognizes the N-terminal sequence of rodent Aβ40, and on the monoclonal antibody, G2-10, which specifically recognizes the free C-terminus of Aβ40. Ab585 was labeled with biotin (b-Ab585) by first dialyzing the antibody sample extensively versus PBS (pH 7.8) to remove impurities, followed by dilution to between 1 and 2 mg/mL protein concentration. EZ-Link Sulfo-NHS-LC-Biotin (Pierce) was dissolved in PBS (pH 7.8) at a concentration of 1 mg/mL immediately prior to use. Ab585 was labeled with EZ-Link Sulfo-NHS-LC-biotin using a 10:1 biotin:antibody ratio by incubation at room temperature for 1 hour. The labeling reaction was quenched by addition of 1.0 M glycine to a final concentration of 0.1 M followed by 10 minute incubation at room temperature. Glycine was removed by extensive dialysis versus PBS.
For rat CSF Aβ40 determinations, a calibration curve of various concentrations of synthetic rodent Aβ40 was assayed in parallel with rat CSF samples in duplicate using an avidin-coated 96-well MSD plate (Mesoscale Diagnostics). Either 50 μL of rodent Aβ40 standards diluted in PBS (pH 7.4) supplemented with 1% BSA and 1% Tween-20 (standard diluent buffer) or 40 μL of standard diluent buffer plus 10 μL rat CSF were added to each 96 well avidin-coated plate. To each well was added 50 μL of 0.1 M HEPES (pH 7.5), 2% BSA, 2% Tween-20, 0.3 M NaCl (2×Aβ40 buffer) supplemented with the b-Ab585 capture and ruthenylated-G2-10 detection antibodies diluted to 1 μg/mL and 0.5 μg/mL, respectively. Plates were shaken for 1 min on a microplate shaker, covered to protect from light and incubated overnight (˜16 h) at 4° C. For detection, plates were first washed twice with 100 μL of 1×CSF Aβ40 buffer followed by addition of 160 μL of 1×MSD read buffer-T (Mesoscale Diagnostics) diluted in 1×CSF Aβ40 buffer. Plates were read on a MSD Sector Imager 2400 model (Mesoscale Diagnosotics). […]

Chain of soluble human BACE-1 catalytic domain (P56817 75-416): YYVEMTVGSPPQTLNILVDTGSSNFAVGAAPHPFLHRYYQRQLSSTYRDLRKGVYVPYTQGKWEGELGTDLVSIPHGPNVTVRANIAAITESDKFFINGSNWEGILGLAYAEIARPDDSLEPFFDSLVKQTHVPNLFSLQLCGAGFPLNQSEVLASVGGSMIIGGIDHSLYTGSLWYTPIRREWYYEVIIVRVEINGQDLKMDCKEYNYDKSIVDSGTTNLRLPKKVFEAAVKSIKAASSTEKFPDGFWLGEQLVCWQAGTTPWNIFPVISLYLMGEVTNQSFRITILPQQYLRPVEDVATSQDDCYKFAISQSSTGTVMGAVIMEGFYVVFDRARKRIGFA

Row | Structure (SMILES) | Ki [1] [nM] | Aβ reduction in vivo in rat (Δ% CSF Aβ40 @ 10 mpk) (CSF Aβ40)
1 | COc1cnc2c(Nc3ccc(F)c([C@]4(C)CS(=O)(=O)C(C)(C)C(N)=N4)c3)nccc2n1 [Ex 47 of WO2014059185, reference compound] | 3.3 | −88%
2 | C[C@@]1(c2nc(Nc3nccc4cc(C#N)cnc34)ncc2F)CS(=O)(=O)[C@@](C)(C2CC2)C(N)=N1 [Example 5, 8-({4-[(3R,6S)-6-cyclopropyl-5-imino-3,6-dimethyl-1,1-dioxidothiomorpholin-3-yl]-5-fluoropyrimidin-2-yl}amino)-1,7-naphthyridine-3-carbonitrile] | 8.7 | –
3 | COc1cnc2c(Nc3cc([C@]4(C)CS(=O)(=O)[C@@](C)(C5CC5)C(N)=N4)c(F)cn3)nccc2c1 [Example 6, N-{4-[(3R,6S)-6-cyclopropyl-5-imino-3,6-dimethyl-1,1-dioxidothiomorpholin-3-yl]-5-fluoropyridin-2-yl}-3-methoxy-1,7-naphthyridin-8-amine] | 2.6 | −92%
4 | COc1cnc2c(Nc3ccc(F)c([C@]4(C)CS(=O)(=O)[C@@](C)(C5CC5)C(N)=N4)c3)nccc2c1 [Example 14, N-{3-[(3R,6S)-6-cyclopropyl-5-imino-3,6-dimethyl-1,1-dioxidothiomorpholin-3-yl]-4-fluorophenyl}-3-methoxy-1,7-naphthyridin-8-amine] | 9.3 | –
5 | C[C@@]1(c2cc(Nc3ncnc4cc(C#N)cnc34)ccc2F)CS(=O)(=O)[C@@](C)(C2CC2)C(N)=N1 [Example 16, 4-({3-[(3R,6S)-6-cyclopropyl-5-imino-3,6-dimethyl-1,1-dioxidothiomorpholin-3-yl]-4-fluorophenyl}amino)pyrido[3,2-d]pyrimidine-7-carbonitrile] | 2.2 | −85%
6 | C[C@@]1(c2cc(Nc3nccc4cc(C#N)cnc34)ccc2F)CS(=O)(=O)[C@@](C)(C2CC2)C(N)=N1 [Example 18, 8-({3-[(3R,6S)-6-cyclopropyl-5-imino-3,6-dimethyl-1,1-dioxidothiomorpholin-3-yl]-4-fluorophenyl}amino)-1,7-naphthyridine-3-carbonitrile] | 1.6 | −87%
7 | COc1cnc2c(Nc3ccc(F)c([C@]4(C)CS(=O)(=O)[C@@](C)(C5CC5)C(N)=N4)c3)ncnc2n1 [Example 22, (2S,5R)-2-cyclopropyl-5-(2-fluoro-5-((7-methoxypteridin-4-yl)amino)phenyl)-3-imino-2,5-dimethylthiomorpholine 1,1-dioxide] | 14 | −70%
8 | CC1(C)C(=N)N[C@](C)(c2cc(Nc3noc4cc(F)cnc34)ccc2F)CS1(=O)=O [WO′426 Ex. 30b, reference compound] | 19.2 | +6%
